In one assay the target is T1, full length (FL) LXRα (Homo sapiens, UniProt Q13133).
T1 construct: the full length (FL) proteins of LXRα (amino acids 1-447); NP005684; expressed in transfected cells; host or cells: HEK293
T1 sequence (Q13133 1-447): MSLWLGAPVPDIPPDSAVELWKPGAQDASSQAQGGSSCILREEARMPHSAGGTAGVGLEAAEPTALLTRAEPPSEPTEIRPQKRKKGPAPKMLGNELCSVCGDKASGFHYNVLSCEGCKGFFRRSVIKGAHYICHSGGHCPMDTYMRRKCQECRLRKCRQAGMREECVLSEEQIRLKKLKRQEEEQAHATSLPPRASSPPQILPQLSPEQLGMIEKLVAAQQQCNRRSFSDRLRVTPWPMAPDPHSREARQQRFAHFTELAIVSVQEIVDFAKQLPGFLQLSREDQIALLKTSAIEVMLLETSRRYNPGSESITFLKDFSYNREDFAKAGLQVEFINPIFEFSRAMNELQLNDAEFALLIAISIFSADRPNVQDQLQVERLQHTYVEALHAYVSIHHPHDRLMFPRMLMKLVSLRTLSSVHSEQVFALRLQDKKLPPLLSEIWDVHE
The experiment in a line: LXR Gal4 reporter transient transfection assay (FL-M2H Gal4α). Format: cell-based. The conditions noted are these: HEK293 cells, full length LXRα; read-out: FL-M2H Gal4α (EC50 range). An outline of the steps:
(§1)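 Cells (HEK293, 3.5×10^4/well) were plated 16-20 h, transfected with LXR, cofactor and reporter plasmids, treated with compound after 4 h, and lysed after a further 16 h. Interaction of LXR constructs with SRC1 or NCoR is detected by GAL4-driven Firefly luciferase.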

Assay [1] deals with T2, LXRβ ligand-binding domain (Homo sapiens, UniProt P55055, DUP175-175).
T2 construct: amino acids 156-461; NP009052; made in house; host or cells: E. coli
T2 sequence (P55055 with tags, fused parts or gaps DUP175-175 limits assumed): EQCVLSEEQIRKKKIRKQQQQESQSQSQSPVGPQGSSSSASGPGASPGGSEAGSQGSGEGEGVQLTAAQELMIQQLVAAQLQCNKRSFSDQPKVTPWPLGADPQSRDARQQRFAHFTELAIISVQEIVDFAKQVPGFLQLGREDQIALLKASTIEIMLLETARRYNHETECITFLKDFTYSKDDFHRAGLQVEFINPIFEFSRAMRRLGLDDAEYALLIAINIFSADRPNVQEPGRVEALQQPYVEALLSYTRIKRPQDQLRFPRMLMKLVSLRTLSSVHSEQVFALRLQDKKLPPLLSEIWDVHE
Briefly: TR-FRETβ activity assay (NCoA3 coactivator peptide recruitment). Format: biochemical. The conditions noted are these: TR-FRET, 1 μM 24(S)-25-epoxycholesterol prestimulation; read-out: FRETβ (EC50 range). An outline of the steps:
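Inverse agonism assessed by loss of coactivator recruitment, read as TR-FRET 665/615 nm after 1 h equilibration at 4 °C, in triplicate. Ten-point titration from 50 μM to 0.002 μM against LXRβ LBD (76 nM, GST fusion) prestimulated with 1 μM 24(S)-25-epoxycholesterol, with 400 nM NCoA3 peptide, pH 6.8. Sulfonyl acetic acids kept as 20 mM DMSO stocks with 100 mM TFA.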

Another assay addresses T3, full length (FL) LXRβ (Homo sapiens, UniProt P55055, DUP175-175).
T3 construct: the full length (FL) proteins of LXRα (amino acids 1-447); NP005684; NP009052; expressed in transfected cells; host or cells: HEK293
T3 sequence (P55055 with tags, fused parts or gaps DUP175-175): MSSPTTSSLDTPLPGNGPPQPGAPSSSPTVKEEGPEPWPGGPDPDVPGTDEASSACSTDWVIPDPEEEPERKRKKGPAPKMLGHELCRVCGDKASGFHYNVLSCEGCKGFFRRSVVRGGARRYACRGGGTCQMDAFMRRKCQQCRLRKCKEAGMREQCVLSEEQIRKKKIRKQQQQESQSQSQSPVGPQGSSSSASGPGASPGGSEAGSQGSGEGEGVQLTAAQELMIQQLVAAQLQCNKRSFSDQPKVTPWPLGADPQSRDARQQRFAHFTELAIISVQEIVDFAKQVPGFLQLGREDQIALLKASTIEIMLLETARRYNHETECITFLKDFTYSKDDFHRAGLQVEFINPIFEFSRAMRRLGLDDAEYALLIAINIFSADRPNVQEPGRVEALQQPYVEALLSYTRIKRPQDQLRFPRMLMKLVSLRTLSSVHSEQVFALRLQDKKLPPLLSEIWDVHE
Briefly: LXR Gal4 reporter transient transfection assay (FL-M2H Gal4β). The conditions noted are these: HEK293 cells, full length LXRβ; read-out: FL-M2H Gal4β (EC50 range). Format: cell-based. The procedure, abridged:
as §1

Turning to `CC(O)(C(=O)O)c1ccc(-c2cccc(-c3c(-c4c(C#N)cccc4C#N)c4cc(F)ccc4n3S(=O)(=O)c3ccc(C(F)F)cc3)c2)cc1` (stereo not drawn) [11/59], the EC50 (on full length (FL) LXRα; in assay [1]; at full length (FL) LXRβ) was less than 100 nM each time.
Regarding `Cc1ccc(S(=O)(=O)n2c(-c3cccc(C4CC4C(=O)O)c3)c(-c3ccsc3C#N)c3cccnc32)cc1` (stereo not drawn) [4/2], the 50% effective concentration (EC50) on full length (FL) LXRα lay within 100 to 1000 nM; in assay [1], 1000 to 10000 nM; on full length (FL) LXRβ, 100 to 1000 nM.
Take `N#Cc1sccc1-c1c(-c2cccc(N3CC(C(=O)O)C3)c2)n(S(=O)(=O)c2ccc(Cl)cc2)c2ccc(F)cc12` [5/7]: the concentration giving a half-maximal response (EC50) on full length (FL) LXRα was 100 to 1000 nM; in assay [1], 100 to 1000 nM; on full length (FL) LXRβ, less than 100 nM.
As for `COCc1sccc1-c1c(-c2cccc(N3CC(C(=O)O)C3)c2)n(S(=O)(=O)c2ccc(C)cc2)c2ccc(F)cc12` [3/6], the results for the EC50 (on full length (FL) LXRα; in assay [1]; on full length (FL) LXRβ) were 100 to 1000 nM, 1000 to 10000 nM and 100 to 1000 nM, respectively.
On to `N#Cc1sccc1-c1c(-c2cccc(N3CC(C(=O)O)C3)c2)n(S(=O)(=O)c2ccc(C(F)F)cc2)c2ccc(F)cc12` [3/35], for which the EC50 was 100 to 1000 nM on full length (FL) LXRα, 100 to 1000 nM in assay [1] and less than 100 nM at full length (FL) LXRβ.
With `N#Cc1cccc(C#N)c1-c1c(-c2cccc([C@H]3CC[C@@H](C(=O)O)CC3)c2)n(S(=O)(=O)c2ccc(C(F)F)cc2)c2ccc(F)cc12` [11/61], the EC50 on full length (FL) LXRα was less than 100 nM; in assay [1], 100 to 1000 nM; at full length (FL) LXRβ, less than 100 nM.
Consider `Cc1ccc(S(=O)(=O)n2c(-c3cccc(-c4ccc(C(=O)NS(C)(=O)=O)cc4Cl)c3)c(-c3ccsc3C#N)c3cc(F)ccc32)cc1` [32/4], for which the concentration for a half-maximal effect (EC50) (at full length (FL) LXRα; in assay [1]; at full length (FL) LXRβ) was less than 100 nM in each case.
Consider `Cc1ccc(S(=O)(=O)n2c(-c3cccc(N4CC(C(=O)O)C4)c3)c(-c3sccc3C#N)c3cc(F)ccc32)cc1` [3/25], for which the EC50 at full length (FL) LXRα is 100 to 1000 nM; in assay [1], 1000 to 10000 nM; at full length (FL) LXRβ it was less than 100 nM.
On to `Cc1ccc(S(=O)(=O)n2c(-c3cccc(-c4cc(C(=O)O)nn4C(C)C)c3)c(-c3ccsc3C#N)c3cc(F)ccc32)cc1` [12/8], for which the EC50 at full length (FL) LXRα lay in the range of 100 to 1000 nM; in assay [1], 1000 to 10000 nM; on full length (FL) LXRβ it was 100 to 1000 nM.
Take `Cc1ccc(S(=O)(=O)n2c(-c3cccc(-c4ccc(C(=O)O)cc4Cl)c3)c(-c3cccc(C)c3C#N)c3cc(F)ccc32)cc1` [11/2]: the EC50 (at full length (FL) LXRα; in assay [1]; on full length (FL) LXRβ) was less than 100 nM in each case.
Consider `Cc1ccc(S(=O)(=O)n2c(-c3cccc(N4CC(C(=O)O)C4)c3)c(-c3ccsc3C(F)F)c3cc(F)ccc32)cc1` [3/4], for which the concentration for a half-maximal effect (EC50) is 100 to 1000 nM at full length (FL) LXRα, 100 to 1000 nM in assay [1] and less than 100 nM at full length (FL) LXRβ.
Regarding `N#Cc1cccc(C#N)c1-c1c(-c2cccc(-c3c(F)cc(OCC(=O)O)cc3F)c2)n(S(=O)(=O)c2ccc(C(F)F)cc2)c2ccc(F)cc12` [3/71], the EC50 (at full length (FL) LXRα; in assay [1]; at full length (FL) LXRβ) was less than 100 nM each time.
As for `O=C(O)c1ccc(-c2cccc(-c3c(-c4cccc5nncn45)c4cc(F)ccc4n3S(=O)(=O)c3ccc(C(F)F)cc3)c2)c(Cl)c1` [11/43], the EC50 (at full length (FL) LXRα; in assay [1]; at full length (FL) LXRβ) was 100 to 1000 nM in each case.
Take `COC(=O)C(C)(C)N(C)C(=O)C1CN(c2cccc(-c3c(-c4ccsc4C#N)c4cc(F)ccc4n3S(=O)(=O)c3ccc(C)cc3)c2)C1` [32/2]: the EC50 (at full length (FL) LXRα; in assay [1]; on full length (FL) LXRβ) was 100 to 1000 nM throughout.
For `Cc1ccc(S(=O)(=O)n2c(-c3cccc(-c4ccc(C(=O)O)cc4)c3)c(-c3ccsc3C#N)c3cc(F)cc(O)c32)cc1` [3/54], the EC50 on full length (FL) LXRα was less than 100 nM; in assay [1], 100 to 1000 nM; on full length (FL) LXRβ, less than 100 nM.
For `O=C(O)c1ccc(-c2cccc(-c3c(-c4ncccc4N4CC(O)C4)c4cc(F)ccc4n3S(=O)(=O)c3ccc(C(F)F)cc3)c2)c(Cl)c1` [5/10], the concentration giving a half-maximal response (EC50) on full length (FL) LXRα fell in the range of 100 to 1000 nM; in assay [1] it was 1000 to 10000 nM; at full length (FL) LXRβ, 100 to 1000 nM.
In the case of `N#Cc1sccc1-c1c(-c2cccc(-c3ccc(C(=O)O)cc3Cl)c2)n(S(=O)(=O)c2ccc(Cl)cc2)c2ccc(F)cc12` [3/57], the EC50 on full length (FL) LXRα was less than 100 nM; in assay [1], 100 to 1000 nM; at full length (FL) LXRβ, less than 100 nM.
`Cc1ccc(S(=O)(=O)n2c(-c3cccc(-c4ccc(C(C(=O)O)N(C)C)cc4Cl)c3)c(-c3ccsc3C#N)c3cc(F)ccc32)cc1` (stereo not drawn) [Example 3, 2-(2-Chloro-3′-(3-(2-cyanothiophen-3-yl)-5-fluoro-1-tosyl-1H-indol-2-yl)-[1,1′-biphenyl]-4-yl)-2-(dimethylamino)acetic Acid]: the EC50 (on full length (FL) LXRα; in assay [1]; at full length (FL) LXRβ) was less than 100 nM in each case.
For the molecule `N#Cc1cccc(C#N)c1-c1c(-c2cccc(-c3ccc(C(=O)O)cc3Cl)c2)n(S(=O)(=O)c2ccc(C(F)F)cc2)c2cnc(O)cc12` [3/70], the concentration for a half-maximal effect (EC50) (on full length (FL) LXRα; in assay [1]; at full length (FL) LXRβ) was 100 to 1000 nM in each case.
Consider `Cc1ccc(S(=O)(=O)n2c(-c3cccc(-n4ccc(C(=O)O)cc4=O)c3)c(-c3ccsc3C#N)c3cc(F)ccc32)cc1` [5/5], for which the EC50 (on full length (FL) LXRα; in assay [1]; on full length (FL) LXRβ) was 100 to 1000 nM each time.
`Cc1ccc(S(=O)(=O)n2c(-c3cccc(N4CCC(C)(C(=O)O)CC4)c3)c(-c3ccsc3C#N)c3cc(F)ccc32)cc1` [3/50]: the concentration giving a half-maximal response (EC50) on full length (FL) LXRα is less than 100 nM; in assay [1], 100 to 1000 nM; on full length (FL) LXRβ, less than 100 nM.
Regarding `Cc1ccc(S(=O)(=O)n2c(-c3cccc(N4CC(C(=O)O)C4)c3)c(-c3ccccc3C3COC3)c3cc(F)ccc32)cc1` [3/31], the half-maximal effective concentration (EC50) (on full length (FL) LXRα; in assay [1]; at full length (FL) LXRβ) was 100 to 1000 nM each time.
On to `Cc1ccc(S(=O)(=O)n2c(-c3cccc(N4CC(C(=O)O)C4)c3)c(-c3ccsc3C(F)(F)F)c3cc(F)ccc32)cc1` [3/30], for which the 50% effective concentration (EC50) was less than 100 nM on full length (FL) LXRα, 100 to 1000 nM in assay [1] and less than 100 nM on full length (FL) LXRβ.
`N#Cc1cccc(C#N)c1-c1c(-c2cccc(N3CC(C(=O)O)C3)c2)n(S(=O)(=O)c2ccc(C(F)F)cc2)c2ccc(F)cc12` [3/67]: the EC50 (at full length (FL) LXRα; in assay [1]; on full length (FL) LXRβ) was 100 to 1000 nM each time.
Regarding `Cc1ccc(S(=O)(=O)n2c(-c3cccc(-c4cc(C(=O)O)nn4C)c3)c(-c3ccsc3C#N)c3cc(F)ccc32)cc1` [12/7], the concentration for a half-maximal effect (EC50) (at full length (FL) LXRα; in assay [1]; at full length (FL) LXRβ) was 100 to 1000 nM in each case.
In the case of `Cc1ccc(S(=O)(=O)n2c(-c3cc(N4CC(C(=O)O)C4)ccc3F)c(-c3ccsc3C#N)c3cc(F)ccc32)cc1` [3/41], the EC50 was less than 100 nM on full length (FL) LXRα, 1000 to 10000 nM in assay [1] and less than 100 nM on full length (FL) LXRβ.
For `Cc1ccc(S(=O)(=O)n2c(-c3cccc(-c4ccc(C(=O)O)c(C)c4Cl)c3)c(-c3ccsc3C#N)c3cc(F)ccc32)cc1` [12/1], the EC50 is less than 100 nM on full length (FL) LXRα, 100 to 1000 nM in assay [1] and less than 100 nM at full length (FL) LXRβ.

A word on the EC50: it is the concentration needed to bring the measured effect to its halfway point.

(Values after patent publication US11618747B2, “LXR modulators with bicyclic core moiety” (OrsoBio, Inc., priority 2018, dated 2023).)
